Columns and labels:
HT-29 = assay: cells; conditions: Homo sapiens, HT-29, 48 h
Description: Anti-proliferative activity against human HT-29 assessed as inhibition of cell growth incubated for 48 hrs by MTT assay

[1] = biological target: Epidermal growth factor receptor (Homo sapiens, UniProt P00533); assay: Inhibition of EGFR (unknown origin)
[2] = system: Bovine viral diarrhea virus 1; assay: Antiviral activity against Bovine viral diarrhea virus 1 infected in MDBK cells assessed as reduction in viral replication; type: functional, organism-based; conditions: Bovine viral diarrhea virus isolates and strains
[3] = biological target: T1, Sodium-dependent proline transporter (Homo sapiens) (UniProt Q99884); assay: Inhibition of human PROT at 0.1 uM relative to control
T1 sequence (whole entry): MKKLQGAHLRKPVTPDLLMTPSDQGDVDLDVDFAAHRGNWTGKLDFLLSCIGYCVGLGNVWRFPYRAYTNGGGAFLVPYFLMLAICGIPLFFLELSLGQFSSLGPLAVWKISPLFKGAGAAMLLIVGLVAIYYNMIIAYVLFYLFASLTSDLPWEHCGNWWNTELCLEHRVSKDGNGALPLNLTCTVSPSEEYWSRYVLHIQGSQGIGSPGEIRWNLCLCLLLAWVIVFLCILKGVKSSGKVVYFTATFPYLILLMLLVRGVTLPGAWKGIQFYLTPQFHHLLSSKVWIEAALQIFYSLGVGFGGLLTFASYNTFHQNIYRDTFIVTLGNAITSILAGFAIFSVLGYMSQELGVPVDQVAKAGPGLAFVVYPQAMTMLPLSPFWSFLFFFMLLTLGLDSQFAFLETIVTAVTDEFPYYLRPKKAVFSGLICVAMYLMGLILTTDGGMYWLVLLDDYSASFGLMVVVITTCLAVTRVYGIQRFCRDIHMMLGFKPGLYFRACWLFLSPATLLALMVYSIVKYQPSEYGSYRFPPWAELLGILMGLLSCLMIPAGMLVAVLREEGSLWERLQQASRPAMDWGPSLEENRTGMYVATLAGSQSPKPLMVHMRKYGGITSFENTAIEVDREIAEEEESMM

[4] = biological target: Vascular endothelial growth factor receptor 2 (Homo sapiens, UniProt P35968); assay: Inhibition of VEGFR-2 (unknown origin)
Chain of Vascular endothelial growth factor receptor 2 (P35968 whole entry): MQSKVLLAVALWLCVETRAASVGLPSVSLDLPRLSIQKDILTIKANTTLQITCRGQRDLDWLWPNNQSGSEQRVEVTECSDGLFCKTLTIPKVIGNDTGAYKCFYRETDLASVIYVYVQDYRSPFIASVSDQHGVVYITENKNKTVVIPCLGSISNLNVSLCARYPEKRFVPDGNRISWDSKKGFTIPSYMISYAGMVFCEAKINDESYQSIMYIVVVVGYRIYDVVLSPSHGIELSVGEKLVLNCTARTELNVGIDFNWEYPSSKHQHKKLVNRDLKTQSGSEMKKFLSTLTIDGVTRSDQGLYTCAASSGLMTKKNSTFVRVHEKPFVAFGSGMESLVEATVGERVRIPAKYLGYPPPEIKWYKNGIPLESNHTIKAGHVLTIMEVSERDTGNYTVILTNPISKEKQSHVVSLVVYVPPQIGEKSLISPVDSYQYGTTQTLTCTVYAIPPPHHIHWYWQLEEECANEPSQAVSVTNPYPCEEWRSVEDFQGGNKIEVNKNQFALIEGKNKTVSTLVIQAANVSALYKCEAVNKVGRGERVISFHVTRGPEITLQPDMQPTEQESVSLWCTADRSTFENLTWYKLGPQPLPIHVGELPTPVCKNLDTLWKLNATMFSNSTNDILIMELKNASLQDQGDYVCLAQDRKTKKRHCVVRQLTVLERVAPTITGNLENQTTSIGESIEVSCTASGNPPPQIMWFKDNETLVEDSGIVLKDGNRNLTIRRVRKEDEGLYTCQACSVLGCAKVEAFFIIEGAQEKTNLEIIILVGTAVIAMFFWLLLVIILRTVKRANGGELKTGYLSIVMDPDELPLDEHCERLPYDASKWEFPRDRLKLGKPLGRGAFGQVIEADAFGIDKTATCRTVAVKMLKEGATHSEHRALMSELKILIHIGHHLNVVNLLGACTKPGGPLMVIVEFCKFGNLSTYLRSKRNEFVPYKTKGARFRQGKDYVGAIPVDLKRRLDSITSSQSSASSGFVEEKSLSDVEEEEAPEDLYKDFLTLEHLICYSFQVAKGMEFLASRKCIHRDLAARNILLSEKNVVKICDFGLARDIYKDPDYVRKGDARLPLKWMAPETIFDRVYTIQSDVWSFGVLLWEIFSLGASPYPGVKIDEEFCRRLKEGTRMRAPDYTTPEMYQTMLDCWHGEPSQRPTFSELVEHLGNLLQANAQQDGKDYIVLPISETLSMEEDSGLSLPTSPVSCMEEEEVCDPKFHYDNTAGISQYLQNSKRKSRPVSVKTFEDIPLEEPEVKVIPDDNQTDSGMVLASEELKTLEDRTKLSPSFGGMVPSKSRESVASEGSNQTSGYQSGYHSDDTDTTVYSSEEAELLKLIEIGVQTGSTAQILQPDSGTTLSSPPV

Chain of Epidermal growth factor receptor (P00533 whole entry): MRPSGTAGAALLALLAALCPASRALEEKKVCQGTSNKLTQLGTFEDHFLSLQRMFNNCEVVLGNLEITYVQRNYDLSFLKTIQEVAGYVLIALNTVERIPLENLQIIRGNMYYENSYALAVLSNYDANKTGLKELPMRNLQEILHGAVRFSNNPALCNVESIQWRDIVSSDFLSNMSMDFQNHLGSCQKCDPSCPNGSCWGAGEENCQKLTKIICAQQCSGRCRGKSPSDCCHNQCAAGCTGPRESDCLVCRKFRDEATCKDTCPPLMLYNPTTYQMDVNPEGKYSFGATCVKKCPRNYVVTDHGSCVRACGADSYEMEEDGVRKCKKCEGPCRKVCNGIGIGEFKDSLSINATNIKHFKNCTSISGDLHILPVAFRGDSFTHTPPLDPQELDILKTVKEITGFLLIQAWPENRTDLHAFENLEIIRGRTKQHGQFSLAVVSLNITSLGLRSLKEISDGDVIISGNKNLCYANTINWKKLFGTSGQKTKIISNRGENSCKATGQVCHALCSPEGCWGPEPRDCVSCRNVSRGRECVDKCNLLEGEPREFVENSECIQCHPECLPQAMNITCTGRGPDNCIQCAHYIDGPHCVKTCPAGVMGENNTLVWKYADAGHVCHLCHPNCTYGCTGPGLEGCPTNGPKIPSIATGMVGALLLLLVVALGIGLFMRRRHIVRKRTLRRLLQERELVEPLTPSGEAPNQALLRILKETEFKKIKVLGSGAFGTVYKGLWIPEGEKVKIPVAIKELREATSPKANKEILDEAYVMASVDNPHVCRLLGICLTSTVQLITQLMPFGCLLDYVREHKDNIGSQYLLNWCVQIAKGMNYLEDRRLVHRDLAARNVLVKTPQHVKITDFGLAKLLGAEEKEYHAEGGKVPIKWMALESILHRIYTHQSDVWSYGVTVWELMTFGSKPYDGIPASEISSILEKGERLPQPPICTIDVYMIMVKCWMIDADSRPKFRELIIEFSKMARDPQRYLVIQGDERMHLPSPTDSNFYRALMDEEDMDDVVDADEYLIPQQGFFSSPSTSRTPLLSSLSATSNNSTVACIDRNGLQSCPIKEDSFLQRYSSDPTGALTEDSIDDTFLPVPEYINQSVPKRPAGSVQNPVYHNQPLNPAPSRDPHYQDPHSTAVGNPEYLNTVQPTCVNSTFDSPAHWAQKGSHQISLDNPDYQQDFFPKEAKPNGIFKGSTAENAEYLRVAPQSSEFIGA

## COc1cc(/C=N/NC(=O)COc2nc(C)nc3c2c(C)nn3-c2ccccc2)cc(OC)c1OC
HT-29
  IC50: 5360 nM

## CC1=NNC2Oc3ncn(N)c(=N)c3C(c3ccccc3Br)C12 (stereo unspecified)
[1]
  IC50: 60 nM

## Cc1nn(-c2ccc(Cl)cc2)c2c1C(=O)N(c1ccccc1)C2
[2]
  EC50: 120 nM

## CCCCC[C@H]1CCCN1C(=O)c1nn(C(C)(C)C)c2nc(NC(=O)c3ccc(C)cc3)sc12
[3]
  inhibition: 50%

## NC(=O)c1ncn([C@@H]2O[C@H](CO)[C@@H](O)[C@H]2O)n1 [RIBAVIRIN]
[2]
  EC50: 1300 nM

## CC1=NNC2OC(NS(=O)(=O)c3ccc(C)cc3)=C(C#N)C(c3ccccc3Br)C12 (stereo unspecified)
[4]
  IC50: 220 nM

From ChEMBL document CHEMBL5346867, “A close look into the biological and synthetic aspects of fused pyrazole derivatives” (Eur J Med Chem, 2022)
